Experimental data published in ChEMBL document CHEMBL1201862, “PubChem BioAssay data set” (2004).
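Where inhibition never reached the appropriate level, the endpoint shown equals the highest concentration tested. Otherwise, values were interpolated linearly from a five-concentration, 48-hour dose response in 96-well plates. The concentration for 50% growth inhibition is given as GI50.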 Calls of active or inactive are those of the source. No stated cut-off is given here; in the data, active = GI50 up to about 1.1 µM and inactive = higher.

Assays:
Assay in all cases: growth of human tumour cells (NCI), 48 h
[1] = test system: HT-29
[2] = test system: K562
[3] = test system: MDA-MB-435
[4] = test system: EKVX
[5] = test system: U-251
[6] = test system: SNB-19
[7] = test system: HOP-92
[8] = test system: DU-145
[9] = test system: SF-539
[10] = test system: HCC 2998
[11] = test system: MDA-MB-231
[12] = test system: NCI-H23
[13] = test system: UO-31
[14] = test system: SF-268
[15] = test system: OVCAR-3
[16] = test system: 786-0
[17] = test system: NCI-H522
[18] = test system: M14
[19] = test system: HOP-62
[20] = test system: PC-3

Measured: GI50

CN(C)C(=S)N/N=C\C(=N/NC(=S)N(C)C)c1ccccc1
inactive: [1] 5.16 µM | [2] 4.68 µM | [3] 34.9 µM | [4] 7.36 µM | [5] 3.96 µM | [6] 17 µM | [7] 3.91 µM | [8] 4.23 µM | [9] 10.1 µM | [10] 7.53 µM | [11] 19.3 µM | [12] 9.46 µM | [13] 3.69 µM | [14] 4.14 µM | [15] 2.7 µM | [16] 7.33 µM | [17] 3.15 µM | [18] 5.51 µM | [19] 6.05 µM

CC(C)(C)c1cc(C(C)(C)C)c2sc(=O)oc2c1O
inactive: [1] 17.4 µM | [2] 10.1 µM | [3] 12.4 µM | [4] 15 µM | [5] 14.2 µM | [6] 17.3 µM | [7] 16.8 µM | [8] 17.1 µM | [9] 16.1 µM | [20] 14.7 µM | [11] 18.4 µM | [13] 11.6 µM | [14] 13.6 µM | [15] 11.8 µM | [16] 16.4 µM | [17] 13.7 µM | [18] 17.5 µM | [19] 17 µM

CN(C)/C=C/C=C(/C=N/S(=O)(=O)C(F)(F)F)C1C=CN(S(=O)(=O)C(F)(F)F)C=C1
inactive: [1] 27.5 µM | [2] 37.8 µM | [3] 25.8 µM | [4] 30.1 µM | [5] 37.6 µM | [7] 32.7 µM | [8] 37.2 µM | [10] 28.1 µM | [11] 31.1 µM | [12] 23.3 µM | [13] 29.1 µM | [14] 48.5 µM | [15] 32.4 µM | [16] 45.8 µM | [17] 21.6 µM | [18] 36.1 µM | [19] 39.4 µM

O=C(CC(C(=O)c1ccsc1)c1ccccc1)c1cccs1 (stereo unspecified)
inactive: [1] 69.2 µM | [2] > 100 µM | [3] 40.6 µM | [4] > 100 µM | [5] 62.2 µM | [7] > 100 µM | [8] > 100 µM | [9] > 100 µM | [10] 85.3 µM | [11] 22.2 µM | [12] 22 µM | [13] 19.6 µM | [14] > 100 µM | [15] 96.8 µM | [16] > 100 µM | [17] 41.6 µM | [18] 24.8 µM | [19] > 100 µM

COP(=O)(OC)C(O)/C=C/c1ccco1 (stereo unspecified)
inactive: [1] > 100 µM | [2] > 100 µM | [3] > 100 µM | [4] > 100 µM | [5] > 100 µM | [6] > 100 µM | [7] > 100 µM | [8] > 100 µM | [20] > 100 µM | [12] > 100 µM | [13] > 100 µM | [14] > 100 µM | [15] > 100 µM | [16] > 100 µM | [17] > 100 µM | [18] > 100 µM | [19] > 100 µM

COC1=CC(=O)C(O)=C(C[C@@]2(C)[C@@H]3CCC[C@H](COC(=O)CCCCCNC(=O)OC(C)(C)C)[C@@]3(C)CC[C@@H]2C)C1=O
inactive: [1] 5.12 µM | [2] 3.86 µM | [3] > 10 µM | [4] 8.28 µM | [5] 3.9 µM | [6] 3.77 µM | [7] 3.9 µM | [8] > 10 µM | [20] > 10 µM | [11] > 10 µM | [13] 6.47 µM | [14] 5.85 µM | [15] 5.92 µM | [16] > 10 µM | [17] 3.05 µM | [18] 6.56 µM | [19] 5.08 µM

COP(=O)(OC)[C@@](O)(c1ccccc1)[C@@H](O)[C@@H](O)c1ccccc1
inactive: [1] > 100 µM | [3] > 100 µM | [4] > 100 µM | [5] 88.5 µM | [6] > 100 µM | [7] > 100 µM | [8] > 100 µM | [9] 33.7 µM | [20] > 100 µM | [11] > 100 µM | [12] > 100 µM | [13] > 100 µM | [14] > 100 µM | [15] > 100 µM | [16] 64.6 µM | [17] 37.4 µM | [18] > 100 µM

O=C(O)c1ccc2[nH]c(=O)oc2c1
inactive: [1] > 100 µM | [2] > 100 µM | [3] > 100 µM | [4] > 100 µM | [5] > 100 µM | [6] > 100 µM | [8] > 100 µM | [9] > 100 µM | [20] > 100 µM | [11] > 100 µM | [12] > 100 µM | [14] > 100 µM | [15] > 100 µM | [16] > 100 µM | [18] > 100 µM | [19] > 100 µM

Cc1cc(=O)oc2cc(OCc3c(F)cccc3Cl)ccc12
inactive: [3] 1.78 µM | [5] 8.85 µM | [6] 20.9 µM | [7] 10.5 µM | [8] > 100 µM | [9] 11.9 µM | [20] 3.56 µM | [11] 4.07 µM | [12] > 100 µM | [13] > 100 µM | [14] 21.4 µM | [15] > 100 µM | [16] 11.6 µM | [17] 11.1 µM | [18] 9.35 µM | [19] 13 µM

C=C(C)C1CC=C(C)CC1 (stereo unspecified)
inactive: [1] 923 µM | [2] 813 µM | [4] 1030 µM | [5] 787 µM | [6] 906 µM | [7] 841 µM | [9] 899 µM | [10] 973 µM | [12] 933 µM | [13] 925 µM | [14] 944 µM | [15] 891 µM | [16] 923 µM | [17] 989 µM | [18] 893 µM | [19] 883 µM

Cc1cccc(N2C(=O)C(Cl)=C(Cl)C2=O)c1
inactive: [1] > 62.2 µM | [2] 35.3 µM | [4] > 74 µM | [5] > 100 µM | [6] > 100 µM | [7] > 53.8 µM | [9] > 100 µM | [10] > 100 µM | [12] > 69.2 µM | [13] > 100 µM | [14] 97.3 µM | [15] > 50.6 µM | [16] > 54.1 µM | [17] 8.91 µM | [18] > 55.8 µM | [19] > 100 µM

CCOc1cc2c(C(=O)CC)c(O)ccc2o1
inactive: [1] 39 µM | [2] 28.8 µM | [4] > 100 µM | [5] > 100 µM | [6] > 100 µM | [7] > 100 µM | [9] > 100 µM | [10] > 100 µM | [12] > 100 µM | [13] > 100 µM | [14] > 100 µM | [15] > 100 µM | [16] > 100 µM | [17] > 100 µM | [18] > 55 µM | [19] > 100 µM

COc1ccc(OC)c(NC(=O)C2=C(C)NC(C)=C(C(=O)Nc3cc(OC)ccc3OC)C2c2ccccc2)c1
inactive: [1] > 100 µM | [2] 83 µM | [4] > 100 µM | [5] > 100 µM | [6] > 100 µM | [7] 6.41 µM | [9] > 100 µM | [10] > 100 µM | [12] > 100 µM | [13] 35.6 µM | [14] 63.7 µM | [15] > 100 µM | [16] > 100 µM | [17] > 100 µM | [18] > 100 µM | [19] > 100 µM

COc1ccccc1-c1nc[nH]c1-c1ccccc1OC
inactive: [2] 19.9 µM | [4] 25.6 µM | [6] 35.2 µM | [7] 17.3 µM | [20] 18.6 µM | [11] 21.7 µM | [12] 27.4 µM | [13] 45.1 µM | [14] 14.4 µM | [15] 24.2 µM | [16] 35.5 µM | [17] 13.2 µM | [18] 19.7 µM | [19] 40.8 µM

O=C(CC(=O)c1ccccc1)C(=O)NC12CC3CC(CC(C3)C1)C2
inactive: [1] > 100 µM | [2] > 56.9 µM | [4] > 100 µM | [5] > 88.9 µM | [6] > 100 µM | [7] > 100 µM | [9] > 100 µM | [10] > 100 µM | [12] > 100 µM | [13] > 100 µM | [14] > 91.4 µM | [15] > 100 µM | [16] > 56.2 µM | [17] > 83.4 µM | [18] > 100 µM | [19] > 100 µM

COc1cc2cnc3c4cc(O)ccc4ccc3c2cc1OC
inactive: [1] > 100 µM | [2] 19.7 µM | [4] > 100 µM | [5] 10.8 µM | [6] 30.7 µM | [7] > 100 µM | [9] 63 µM | [10] 91 µM | [12] 45.7 µM | [13] > 100 µM | [14] 23.6 µM | [15] 17.6 µM | [16] 61.8 µM | [17] 15.6 µM | [18] > 100 µM | [19] 36.8 µM

O=C1CC(C2(O)C(=O)Nc3ccc([N+](=O)[O-])cc32)c2ccccc21 (stereo unspecified)
inactive: [1] 22.5 µM | [2] 19.7 µM | [4] 28.6 µM | [5] 17.7 µM | [6] > 100 µM | [7] 35 µM | [9] 32.5 µM | [10] 20.6 µM | [12] 26.7 µM | [13] > 100 µM | [14] 18.5 µM | [15] 25.4 µM | [16] 15.8 µM | [17] 11.2 µM | [18] 18.9 µM | [19] 64 µM
